Literature values, collected in publication PMC10046020, “In Silico Screening and Optimization of Cell-Penetrating Peptides Using Deep Learning Methods” (Biomolecules, 2023).

Details: Spreadsheet S1: 150 CPP and 150 non-CPP peptides collected from CellPPD, MLCPP, CPPsite 2.0, Lifetein and other publications; cited from earlier work
Text: Supplement biomolecules-13-00522-s001.zip/biomolecules-2162660_Supplementary Spreadsheets S1 Test Set.csv, table | column: class || Supplement biomolecules-13-00522-s001.zip/biomolecules-2162660_Supplementary Spreadsheets S2 Train Set.csv, table | column: class

| Substance | class (CPP / Non-CPP), Test Set |
| --- | --- |
| RLRLRLRLRLRLRLRLKLLKLLKLLKLLKKKKKKKGYK | CPP |
| ACSGSGSGCGSGSGSCGRRRRRRRR | CPP |
| NWVTMKDSADSIDHECPRYFDTCERSCKISE | Non-CPP |
| LLATTALLKTTALLKTTA | Non-CPP |
| YMVGLCDYHILYSGWGQMDWHPEPHFYAWMYR | Non-CPP |
| MPVMFYFSARNEVALVLVYFNFMIMMMH | Non-CPP |
| GRCTKSIPPICWPD | CPP |
| RGGRLCYCRRRFCVCVGR | CPP |
| MNASQVAGEEAPQSGHSVKVVLVGDGGCGKTSLMMVF | Non-CPP |
| AEQNPIYWARYADWLFTTPLLLLDLALLVDADEGT | CPP |
| TAQVFFNVYKKAKPN | Non-CPP |
| PVVHLTLRQAGDDFSR | Non-CPP |
| YTMQMLLEIHRKNW | Non-CPP |
| ADCKNFFWKTFTSC | Non-CPP |
| RARRNRRARILFQYRARNRARN | CPP |
| TFFYGGSRGKRNNFKTEEY | CPP |
| YGRKKRRQRRRYGRKKRRQRRR | CPP |
| TAAGDARANAVAKAGLHDLNIETDTERNH | Non-CPP |
| RQIKIWFQNRRMKWKKGG | CPP |
| GWTNLSAGYLLGPPPGFSPFR | Non-CPP |
| CCTGRKKRRQRRR | CPP |
| ARRRRCSGSGSGCGSGSGSCGRRRR | CPP |
| FLSFLLGPLIDLISKG | Non-CPP |

| Substance | class (CPP / Non-CPP), Test Set |
| --- | --- |
| NAATATRGRSAASRPTQRPRAPARSASRPRRPVQ | CPP |
| FITKALGISYGRKKRRQS | Non-CPP |
| FKCRRWQWRMKKLG | CPP |
| ELFSPIAIAVLGSCVL | Non-CPP |
| AHALCLTEFQIKSNRRMKWKKEN | Non-CPP |
| TRQARRNRRRWRERQR | CPP |
| GWTNLSAGYLLGPPPGFSPFS | Non-CPP |
| KLAKLAKKLAKLAK | CPP |
| LLGDFFRKSKEKIGKEFKRIVQRIKDFLRNLVPRTES | CPP |
| LLKHTALLKTTALLKTTA | Non-CPP |
| RFTFHFRFEFTFHFE | CPP |
| LELELELELELELELELELE | CPP |
| YTPNDITLNNSVALDPIDISIELNKAKSDLEESKE | Non-CPP |
| CRKKRRQRRR | CPP |
| ARRRRCSDRFRNCPADEALCGRRRR | CPP |
| WELVVLGYGRKKRRQRRR | CPP |
| GWTLNSAGYLNGKFLPLILRKIVTAL | Non-CPP |
| LAQLLAQLLAQLGGGGRRRRRRRRR | CPP |
| IAARIKLRSRQYIKLRHL | Non-CPP |
| TPTSPSSPGLSPVPPPDKVDGFSRRSLRRARPRR | Non-CPP |
| PPPPPPPPPPPLRR | CPP |
| TERQIKIWFQNRCMK | Non-CPP |
| FGCKNFFWKTFTSC | Non-CPP |

| Substance | class (CPP / Non-CPP), Test Set |
| --- | --- |
| ACRGRGRGCGSGSGSCG | CPP |
| LKKLLKLLKKLLKLAG | CPP |
| KKRTLRKNDRKKRC | CPP |
| WELVVAYGRKKRRQRRR | CPP |
| VKKKKIKREIKIAAQRYGRELRRMADEFHV | CPP |
| FLPLFLPKIICVITKKC | Non-CPP |
| GRKKRRQ | CPP |
| KLFNGNEVCLDPKEKWVQKVVQIFLK | Non-CPP |
| YGRKKRRQRRRPPLRKKKKKH | CPP |
| GLRKRLRKFRNKIKEKGLRKRLRKFRNKIKEK | CPP |
| AHALCLTERQIKSNRRMKWKKEN | Non-CPP |
| FFLIPKGRRRRRRRRR | CPP |
| RRRRRRRRRRWWWWWW | CPP |
| HADGLFTSGYSKLLGQLSARRYLESLI | Non-CPP |
| ELVVLGKLYGRKKRRQRRR | CPP |
| KLALKALKAALKPA | Non-CPP |
| QWGYGGMPYGGYGGMGGYGMGGYGMGY | Non-CPP |
| RPEGQNYTEGIAVVF | Non-CPP |
| PVVHLTLRQAGDDFGR | Non-CPP |
| FITKALGISYGRKWRRQC | Non-CPP |
| STGKANKITITNDKGRLSK | CPP |
| GLKKLAELAHKLLKLGC | CPP |
| GDCLPHLKLCKENKGCCSKKCKRRGTNIEKRCR | CPP |

| Substance | class (CPP / Non-CPP), Test Set |
| --- | --- |
| MIRIAALNASSTIEDDHEGSFKSHKIQTKEAQEAE | Non-CPP |
| FQAYPCITAYKVMYID | Non-CPP |
| HDEFERHAEGEFTSDVSSYLEGQAAKEFIAWLVKGR | Non-CPP |
| DKLGVWFIWANNASVFHAYHLKC | Non-CPP |
| FLPVLAGIAAKVVPALFCKITKKC | Non-CPP |
| IAARIFLRSRQHIKLRHL | Non-CPP |
| QAHVHVWHKYSVKTVYH | Non-CPP |
| DFDMLRCMLGRVYRPCWQV | Non-CPP |
| CLGSGEQCVRDTSCCSMSCTNNICF | Non-CPP |
| TRSSRAGLQFPVGRVIIRLLRK | CPP |
| QKVAFCDCCYDDIYTVEFKGCIFRPK | Non-CPP |
| KDCERRFSRSDQLKRHQRRHTGVKPFQK | CPP |
| AGCKNFFWKMFTSC | Non-CPP |
| ACSGRGSGCGSGRGSCG | CPP |
| GGVCPKILRRCRRDSDCPGACICRGNGYCGSGSD | CPP |
| INWLKLGKAIIDAL | Non-CPP |
| GFFTLIKAANKLINKTVNKEAGKGGLEIMA | Non-CPP |
| ARFSNPGVWSKVAADIFNMALDTALA | Non-CPP |
| HSDGIFTDSYSRYRKQMAVKKYLAAVLGKRYKQRVKNK | CPP |
| RKKRRQRRRGKKKKKKKKKKKKKKKGRKKRRQRRR | CPP |
| HDEFERHAEGTFTSDVFSYLEGQAAKEFIAWLVKGR | Non-CPP |

Same assay, conditions: Spreadsheet S2: peptides collected from CellPPD, MLCPP, CPPsite 2.0, Lifetein and other publications; cited from earlier work

| Substance | class (CPP / Non-CPP), Train Set |
| --- | --- |
| IYLATALAKWALKQGFGGRRRRRRR | CPP |

Same assay, conditions: cited from earlier work

| Substance | class (CPP / Non-CPP), Test Set |
| --- | --- |
| ENGPDQWSKLYP | Non-CPP |
| KNNLKECGLY | CPP |
| FHFHFRFR | CPP |
| RRRRRHHH | CPP |
| CYFQNCPRG | Non-CPP |
| HGVSGHGQHGVHG | Non-CPP |
| VQQQQPLGQQQP | Non-CPP |
| VIVYIVVKDASSK | Non-CPP |
| RRRRRRRHHH | CPP |
| FKMHEN | Non-CPP |
| KFFKFFKFFK | CPP |
| REDEDEIEW | CPP |
| CSKSSDYQC | CPP |
| RFVHNC | Non-CPP |
| PLDGMCDKGNYTQ | Non-CPP |
| RHVYHVLLSQ | CPP |

| Substance | class (CPP / Non-CPP), Test Set |
| --- | --- |
| EGGGPQWAVGHFM | Non-CPP |
| SARRRRRREW | CPP |
| QIFWDSRHPSQH | Non-CPP |
| RKKNPNCRR | CPP |
| NYRWRCK | CPP |
| IPLVVPLC | CPP |
| NTGTWLKYHS | CPP |
| LRKLRKRLLR | CPP |
| RRRRRRRRRR | CPP |
| NYRWRCKNQ | CPP |
| QNLGNQWAVGHLM | Non-CPP |
| TWLKYH | CPP |
| NYQRRCKNQN | CPP |
| NYQWRCKNQN | CPP |
| QIMISA | Non-CPP |
